# Assay results taken from US11447533B2, “Antimicrobial and anticancer peptides and conjugates and compositions, methods, articles and kits relating thereto” (George Mason Research Foundation, Inc., priority 2018, dated 2022).
# What was measured:
# leucocytes and T-cells = conditions: cited from earlier work
# [1] = test system: primary lung epithelium cells; experiment: Cytotoxicity (Alamar blue); assay type: cell-based, human
# Description: FIGS. 11A-11B are graphs showing cytotoxicity against primary lung epithelium cells in serum-free condition. Cells were seeded in complete growth medium (Minimal essential medium supplemented with 10% fetal bovine serum) at near-confluence into a 96-well plate and allowed to settle for 24-hours. Media was then replaced to OptiMEM I reduced serum medium containing peptide or vehicle alone (DBPS) and cells were incubated overnight (16 hours). A resazurin based dye (Alamar blue) was added directly to media and conversion of resazurin to resorufin was evaluated following two hours. % Survival represents the proportion of viable cells in peptide treated cells relative to cells treated with vehicle alone. […] Each peptide was tested in triplicate.
# FIG. 12 is a graph showing comparison of toxicities against Lung Primary Epithelial cells and Lung Cancerous Epithelial Cells, derived from H358 cell-line. […] Each peptide was tested in triplicate.
# Cytotoxicity. Cells were seeded in complete growth medium (Minimal Essential Medium, MEMα, supplemented with 10% Fetal Bovine Serum) into a culture-treated 96-well plate at a density of 25000 cells per well. After 24 hours, culture media was aspirated and replaced with media containing the selected peptide. No-serum experiments were conducted in Opti-MEM I reduced serum media (ThermoFisher, 31985062) and 10% serum experiments were performed in complete growth medium. In all cases, DBPS was used as a vehicle only control and buffer to serially dilute the peptides. After exposure to the peptides or vehicle-alone for the defined period, Alamar blue dye (resazurin) was added directly to the media and allowed to incubate for two hours. Following incubation, A570/A600 measurements were made to calculate reduction of resazurin dye to resorufin. A ratio of reduction in treated versus untreated cells was calculated in order to determine overall cell viability. The human cells were always maintained in a 37° C. incubator under 5% CO2.
# [2] = test system: E. coli ML35p outer membrane; experiment: Outer membrane disruption (β-lactamase leakage, nitrocefin); assay type: cell-based, Escherichia coli; conditions: DPBS; HCMAB = 100%
# Description: (§1) Interactions with Bacterial Membranes. Interaction of the peptides with bacterial membranes in different phosphate buffers were evaluated using E. coli ML35p, constructed in our laboratory. At first, competent cells of E. coli ML35 were produced by conventional competent cell preparation method, then transformed with pBR322 plasmid. Transformed colonies were selected after growing on Luria-agar containing 50 μg/mL ampicillin. A single transformed colony was grown in presence of ampicillin first in Luria broth and then in MHBII and stored as 20% glycerol stock at −80° C. This frozen stock, on the day of the experiment, was thawed and grown in MHBII containing ampicillin up to OD600 nm=0.8-0.9, washed with PBS and then suspended in the respective buffer up to the required OD600 nm for use.
# Membrane Disruptions. The outer and the inner membrane disruptions by the peptides were evaluated by incubating bacterial suspension with peptides and then measuring the activity of enzymes leaked out of the cells. 100 μL of 10× concentration of peptide in water was incubated with 900 μL bacterial suspension (OD600 nm˜0.1) in respective buffer for 3 hours at room temperature with gentle rotation. Then the cells and debris were separated by centrifugation (10000 r.p.m. for 30 mins) and the supernatant was collected and tested for activity of enzymes that had leaked out of the bacterial cells. HCMAB was used as a positive control to cause 100% membrane disruption and water as a negative causing 0% disruption.
# The outer membrane disruption was tested by using the activity of beta-lactamase present in the periplasmic space of E. coli ML35p. Peptides when disrupt the outer membrane enough to cause beta-lactamase to come out, the degree of disruption can be measured by the virtue of the kinetics of the enzyme and using a chromogenic cephalosporin substrate called nitrocefin. β-lactamase mediated hydrolyzed product of nitrocefin has an absorbance αmax=486 nm. Supernatant collected from the incubation of peptide with bacteria was added with nitrocefin solution in DPBS and incubated at 35° C. and continuous absorbance readings. The slope of the linear section of the absorbance curve (absorbance vs time), was used as a measure of membrane disruption and the % Disruption was calculated as: Equation 7: […]
# Some of the ATRA1-variants were further tested for their ability to disrupt outer and inner membranes to form pores or disruptions sufficiently large so as to allow enzymes to leak out of their cellular compartments (cytoplasm or periplasmic space). For this purpose, two reporter molecules were used with one being the substrate of a cytoplasmic enzyme and the other was a substrate for an enzyme residing in the periplasmic space. One of the reporters, nitrocefin was the substrate for β-lactamase, which is present in the bacterial periplasm, whereas the other molecule, ONPG, was the substrate for β-galactosidase, which resides in the cytoplasm of E. coli ML35p strain. […] Similarly, β-galactosidase activity in the supernatants is evidence of inner membrane disruption and possible pore formation. When the aforesaid supernatants were tested for nitrocefin and ONPG hydrolysis, the corresponding absorbance increased with time (data not shown) indicating β-lactamase and β-galactosidase activity, respectively, and thus disruption of both the inner and outer membranes. The slopes of the increase in absorbance as a function of time provides the rate of enzyme activity. The enzyme activities in supernatants collected after incubation of bacteria with the quaternary ammonium surfactant, hexadecyltrimethylammonium bromide (HCMAB) was used as an internal reference for 100% membrane disruption. Enzyme activity for supernatants collected for cells incubated in the absence of peptide provided a reference for 0% membrane disruption. Bee venom peptide melittin was used as a positive control. […]
# B. cereus ATCC 11778 = experiment: Antimicrobial efficacy (resazurin virtual colony count); assay type: cell-based, Bacillus cereus; conditions: DPBS
# Description: Antimicrobial Studies. The phosphate buffers used for antimicrobial assays were supplemented with non-nitrogenous energy source, 0.1% (w/v) glucose. To conduct antimicrobial assays, bacterial strains were first suspended in respective buffers. E. coli (ATCC 25922) and B. cereus (ATCC 11778) were grown in MHB II up to OD600 nm˜1 and stored as frozen stock in 20% glycerol at −80° C. Occasionally they were thawed and enumerated by serial dilution and spreading on MHB II agar plates. The concentrations of the frozen stocks of E. coli and B. cereus strains were 1.0-1.1*10^8 CFU/mL with OD600 nm˜0.8. In case of other bacterial strains, they were grown on the days of experiment up to OD600 nm˜1-1.5 and then adjusted to OD600 nm˜0.8. The growth media of the drug-resistant bacterial strains were supplemented with few of the respective antibiotics against which they are resistant. […]
# (§2) Antimicrobial assays in different phosphate buffers and serum were conducted by adapting, with necessary modifications a fast high-throughput method based on Virtual Colony Count technique and later modified by incorporating the use of resazurin. At first serial dilution of a microbial strain in respective buffer was poured in the wells of 96 well polypropylene microplate and was then added with same volume of 2× MHB II supplemented with 80 μg/mL resazurin and incubated at 35° C. in a Gemini EM Microplate Reader (Molecular Devices) overnight with intermittent shaking. As the microbe grows it reduces non-fluorescent resazurin to fluorescent resorufin and the fluorescent intensity of each well were measured (excitation=570 nm, emission=590 nm) each 5 min for 15 hours. The time (t, min) to reach a certain fluorescence (RFU=20000 with respect to the starting fluorescence) was correlated with the initial bacterial concentration (in CFU/mL) in the particular well to obtain a calibration plot of the form: Log([Bacteria],CFU/mL)=b+m*t Equation 4: […]
# E. coli ATCC 25922 = experiment: as above; assay type: cell-based, Escherichia coli
# Description: (§3) Antimicrobial Studies. The phosphate buffers used for antimicrobial assays were supplemented with non-nitrogenous energy source, 0.1% (w/v) glucose. To conduct antimicrobial assays, bacterial strains were first suspended in respective buffers. E. coli (ATCC 25922) and B. cereus (ATCC 11778) were grown in MHB II up to OD600 nm˜1 and stored as frozen stock in 20% glycerol at −80° C. Occasionally they were thawed and enumerated by serial dilution and spreading on MHB II agar plates. The concentrations of the frozen stocks of E. coli and B. cereus strains were 1.0-1.1*10^8 CFU/mL with OD600 nm˜0.8. In case of other bacterial strains, they were grown on the days of experiment up to OD600 nm˜1-1.5 and then adjusted to OD600 nm˜0.8. The growth media of the drug-resistant bacterial strains were supplemented with few of the respective antibiotics against which they are resistant. 200 μL of the 0.8 OD600 nm culture were added to 10 mL of the respective buffer to obtain a suspension which was used to incubate with equal volumes of peptide solution in the same buffer.
# as §2
# (§4) To obtain antimicrobial efficacy of the peptides, 50 μL of serially diluted peptide in a buffer was incubated with 50 μL microbial suspension in the same buffer for 3 hours in black polypropylene 96 well plate. After incubation the wells were added with 100 μL of 2× MHB II supplemented with 80 μg/mL resazurin and then incubated with continuous fluorescence reading for overnight time period as described earlier. The surviving microbial population (CFU/mL) in each well were calculated by first finding the time to reach a fluorescence of RFU=20000 and the correlation (4) for the specific microbial strain and buffer. % Survival represents the proportion of viable cells in peptide treated cells relative to cells treated with the respective buffer alone. Equation 5: […]
# Finally, the antimicrobial effectiveness of each peptide against the particular microbial strain in the specific buffer was determined by plotting % microbial survival as a function of the log of the concentration of the peptide and fitting the resulting data to a variable-slope sigmoidal regression model (equation 6). In this equation, log(EC50) represents the log of the concentration of the peptide required to kill half of the microbial population, where Smin and Smax correspond to the minimal and maximal microbial survival values (respectively), and H, Hill slope, is the parameter defining the steepness of the transition slopes of sigmoidal survival curves. % Microbial survival=Smin+(Smax−Smin)/(1+10^log(EC^50^)-log[peptide]*H) Equation 6: […]
# The antimicrobial efficacies of the peptides were first tested against the model Gram-negative bacteria, E. coli ATCC 25922, in different phosphate buffers having varied ionic strengths and compositions. The phosphate buffers that were used included 10 mM sodium phosphate (calculated ionic strength˜25 mM), PBS and DPBS. […]
# [3] = test system: E. coli ML35p outer membrane; experiment: NPN assay, outer membrane perturbation; assay type: cell-based, Escherichia coli; conditions: PBS; 25 μM peptide; 25 μM PMB = 100%
# Description: as §1
# NPN Assay. The outer membrane perturbation of bacteria was evaluated by incubating E. coli ML35p with peptides in presence of NPN. 100 mM NPN in acetone was supplemented proportionately to a bacterial suspension of OD600 nm˜0.5 to achieve a final concentration of 20 μM of NPN and the mixture was equilibrated for 30 mins. Then, 90 μL of the bacterial suspension containing 20 μM NPN was added with 10 μL of 250 μM peptide (10×) solution in water and scanned for fluorescence intensity (excitation=350 nm, emission=420 nm). The % Perturbation was calculated by considering PMB to be causing 100% Perturbation and water (without peptide) as 0% Perturbation. Each peptide was tested in triplicate in each of the three phosphate buffers used.
# When peptides partition from the bulk aqueous environment to the cellular membranes, they may cause small defects in the membrane organization, a signature of adsorption of the peptides into the membranes. Such small defects are called membrane perturbations and can be evaluated by utilizing molecular probes. One such molecular probe is NPN, which is a hydrophobic molecule and is usually repelled to enter the hydrophobic interiors of the membrane by the polar headgroups of membrane-lipids. However, when small defects and gaps are caused during the adsorption of the peptides into the membranes, NPN can enter through those defects and in the hydrophobic environment of the membrane interior the molecule fluoresces, which can be measured for quantification of the extent of membrane-perturbation and peptide adsorption in the cellular membrane.
# Pseudomonas aeruginosa = experiment: Antimicrobial efficacy against ESKAPE pathogens; assay type: cell-based; conditions: mammalian serum
# Description: as §3, §2, §4
# Finally, the antimicrobial effectiveness of each peptide against the particular microbial strain in the specific buffer was determined by plotting % microbial survival as a function of the log of the concentration of the peptide and fitting the resulting data to a variable-slope sigmoidal regression model (equation 6). […]
# ATRA1-R3W2-HYD, NA-CATH and PMB were evaluated for their effectiveness in mammalian serum conditions against pathogenic bacteria of both normal and drug-resistant strains. […]
# [4] = ~16 hours (overnight), reduced serum conditions
Compound,concentrations of significant cytotoxicity (leucocytes and T-cells) [µM],"concentration over which toxicity was exhibited ([1]; ~6 hours, 10% fetal bovine serum) [µM]","concentration over which significant toxicity was observed [1, 4]","cytotoxicity, in words [1, 4]",outer membrane disruption (β-lactamase activity) relative to HCMAB [2],"antimicrobial efficacy, in words (B. cereus ATCC 11778)","antimicrobial efficacy, in words (E. coli ATCC 25922; DPBS (with Ca++ and Mg++), pH 7.4)","antimicrobial efficacy, in words (E. coli ATCC 25922; PBS (high / physiologically relevant ionic strength), pH 7.4)",membrane perturbation with respect to PMB [3],"antimicrobial effectiveness, in words (Pseudomonas aeruginosa)",increase of EC50 in presence of albumin relative to EC50 in DPBS (E. coli ATCC 25922; DPBS + 4% (w/v) bovine serum albumin versus DPBS),"antimicrobial efficacy, in words (E. coli ATCC 25922; serum)"
CC[C@H](C)[C@H](NC(=O)[C@H](CCCCN)NC(=O)[C@H](CCC(=O)O)NC(=O)[C@H](CCCCN)NC(=O)[C@H](CO)NC(=O)[C@H](CCCCN)NC(=O)[C@H](CCCNC(=N)N)NC(=O)[C@H](Cc1ccccc1)NC(=O)[C@H](Cc1ccccc1)NC(=O)[C@H](CC(=O)O)NC(=O)CNC(=O)[C@H](CC(C)C)NC(=O)[C@@H](N)CC(C)C)C(=O)NCC(=O)N[C@@H](CCCCN)C(=O)N[C@@H](CCC(=O)O)C(=O)N[C@@H](Cc1ccccc1)C(=O)N[C@@H](CCCCN)C(=O)N[C@@H](CCCNC(=N)N)C(=O)N[C@H](C(=O)N[C@H](C(=O)N[C@@H](CCC(N)=O)C(=O)N[C@@H](CCCNC(=N)N)C(=O)N[C@H](C(=O)N[C@@H](CCCCN)C(=O)N[C@@H](CC(=O)O)C(=O)N[C@@H](Cc1ccccc1)C(=O)N[C@@H](CC(C)C)C(=O)N[C@@H](CCCNC(=N)N)C(=O)N[C@@H](CC(N)=O)C(=O)N[C@@H](CC(C)C)C(=O)N[C@H](C(=O)N1CCC[C@H]1C(=O)N[C@@H](CCCNC(=N)N)C(=O)N[C@H](C(=O)N[C@@H](CCC(=O)O)C(=O)N[C@@H](CO)C(=O)O)[C@@H](C)O)C(C)C)[C@@H](C)CC)C(C)C)[C@@H](C)CC [LL37],13 to 25,> 10,Over 10 μM,higher degrees of cytotoxicity,,,,,,,,
KRFKKFFKKFK (SEQ ID NO: 11) [ATRA1-F],,,,,intermediate,somewhat effective,lost activity in DPBS,more effective than ATRA1,decreased slightly,,,
"Polymyxin B [PMB, reference compound]",,,> 6 µM,,,,,,,effective,approximately 3 fold,retained significant antimicrobial activities
